# Experiments:
# [1] = test system: C57B16J mice submitted to diet rich in cholesterol; assay: Non-fasting glycemia after 12 weeks; assay type: in vivo, C57bl6J male mice; details: after 12 weeks of treatment
# Description: (§1) […] C57bl6J male mice (8 weeks of age) from breeding company Janvier (Le Genest Saint Isle, France) are distributed in cages and housed in a room with controlled humidity and temperature (23±0.5° C.). They are subject to a 12/12-hr light cycle (light at 7 am). During one week of adaptation, the animals have free access to drinking water and food, and are then randomized into 5 groups of 12 animals using as selection criteria weight, triglyceridemia and cholesterolemia.
# • a control group receiving a diet enriched in cholesterol (see composition in Table 1) • a group treated with the reference, atorvastatin, 10 mg/kg/day, • a group receiving a 125 ng/kg/day concentration of Lipistase, • a group receiving PS (a mixture of phytosterols and stanols) to the total dose of 1.2 g/kg/day, • a group receiving a combination of Lipistase and phytosterols. […]
# Euthanasia is performed after 3 months of treatment (12 weeks). A blood test is performed, and the following parameters are measured on an automated Konelab (Thermo Fisher, France): total cholesterol (Thermo Fisher, 981,813), triglycerides (Thermo Fisher, 981,786), glucose (Thermo Fisher, 981,780), ALAT (Thermo Fisher, 981,769), ALP (Thermo Fisher, 981,771), ASAT (Thermo Fisher, 981,771).
# [2] = test system: C57B16J mice submitted to diet rich in cholesterol; assay: Index of adiponectin secretion by adipose tissue; assay type: in vivo, C57bl6J male mice; details: adiponectin concentration (μg/ml)/mass of adipose tissue (g)
# Description: as §1
# (§2) • a control group receiving a diet enriched in cholesterol (see composition in Table 1) • a group treated with the reference, atorvastatin, 10 mg/kg/day, • a group receiving a 125 ng/kg/day concentration of Lipistase, • a group receiving PS (a mixture of phytosterols and stanols) to the total dose of 1.2 g/kg/day, • a group receiving a combination of Lipistase and phytosterols.
# (§3) All products (reference, study products and combination of products) are administered in the diet enriched in cholesterol, and administration to animals lasts three months. Lipistase, being in the form of a soybean oil suspension, all diets receive the same volume (1.8% w/w) of neutral soybean oil than that required to provide the desired amount of Lipistase. […]
# [3] = test system: C57B16J mice submitted to diet rich in cholesterol; assay: Distribution of cholesterol in lipoproteins by FPLC; assay type: in vivo, C57bl6J male mice; details: VLDL fraction
# Description: as §1, §2
# All products (reference, study products and combination of products) are administered in the diet enriched in cholesterol, and administration to animals lasts three months. […]
# The determination of lipoprotein profiles is carried out by FPLC (Synelvia, France) after two and three months of treatment and the amounts of cholesterol and triglycerides are measured in the different fractions (HDL, LDL and VLDL).
# [4] = test system: C57B16J mice submitted to diet rich in cholesterol; assay: Adiposity index and distribution of white adipose tissue after 12 weeks; assay type: in vivo, C57bl6J male mice; details: after 12 weeks of treatment
# Description: as §1, §2
# (§4) All products (reference, study products and combination of products) are administered in the diet enriched in cholesterol, and administration to animals lasts three months. Lipistase, being in the form of a soybean oil suspension, all diets receive the same volume (1.8% w/w) of neutral soybean oil than that required to provide the desired amount of Lipistase.
# Animals are sacrificed by cervical dislocation; liver, muscles (gastrocnemius and soleus), heart are quickly dissected, weighed and frozen in liquid nitrogen, then stored at −80° C. The various deposits of fat tissues (subcutaneous, peri-renal, inguinal and mesenteric) are removed and weighed to calculate the adiposity index.
# [5] = test system: C57B16J mice submitted to diet rich in cholesterol; assay: Non-fasting insulinemia after 12 weeks; assay type: in vivo, C57bl6J male mice; details: after 12 weeks of treatment
# Description: as §1, §2, §3
# [6] = Body weight and weight gain of mice on cholesterol-enriched diet, 12 weeks of treatment; assay type: in vivo, C57bl6J male mice; details: diet rich in cholesterol
# Description: as §1, §2, §4
# The assessment of weight and food intake is carried out once a week. […]
# [7] = intestinal tract; cited from earlier work
smiles,measurement,setting,value
CC(C)c1c(C(=O)Nc2ccccc2)c(-c2ccccc2)c(-c2ccc(F)cc2)n1CC[C@@H](O)C[C@@H](O)CC(=O)O [atorvastatin],"Glycemia / blood sugar, effect in words",[1],at the same level than that of the control animals
same,"Adiponectin secretion index, effect in words (FIG. 9)",[2],significantly elevated
same,"Free cholesterol in VLDL, percentage change compared to controls HC (FIG. 11b)",[3],−35%
same,"Adiposity index, effect in words (FIG. 5)",[4],reduction of this index
same,"Epididymal fat, percentage change compared to controls HC (FIG. 6)",[4],−46%
same,"Perirenal (deep) fat, percentage change compared to controls HC (FIG. 6)",[4],−48%
same,"Subcutaneous fat, percentage change compared to controls HC (FIG. 6)",[4],−57%
same,"Insulin levels, percentage change compared to controls HC (FIG. 14)",[5],−50%
same,"Insulinemia, circulating rate (FIG. 14)",[5],2.79 ± 0.33 ng/mL
same,Body weight compared to control animals (FIG. 1),[6],significantly lower
same,Weight gain (FIG. 2),[6],reduction of weight gain
CC(C)CCC[C@@H](C)[C@H]1CC[C@H]2[C@@H]3CC=C4C[C@@H](O)CC[C@]4(C)[C@H]3CC[C@]12C [cholesterol],Intestinal absorption,[7],50%
CC[C@H](CC[C@@H](C)[C@H]1CC[C@H]2[C@@H]3CC[C@H]4C[C@@H](O)CC[C@]4(C)[C@H]3CC[C@]12C)C(C)C [sitostanol],Intestinal absorption,[7],1%
CC[C@H](CC[C@@H](C)[C@H]1CC[C@H]2[C@@H]3CC=C4C[C@@H](O)CC[C@]4(C)[C@H]3CC[C@]12C)C(C)C [sitosterol],Intestinal absorption,[7],4-7%

# Reference: patent US8518459B2, “Composition for regulating lipid metabolism” (Actigenomics S.A., priority 2009, dated 2013)
